Reference: PubChem BioAssay AID342 (DTP/NCI, 2004)
Values joined by “and” are separate entries in the source; they are usually repeats but may differ in a detail not shown here. Equal entries are not always repeated. Square brackets hold non-standard residues; d marks the D form. Peptide text beside a SMILES is read from it. Ac5c = NC1(C(=O)O)CCCC1

Test system: Swiss mice, Sarcoma 180 sc, mean tumor weight T/C
Assay: NCI In Vivo Anticancer Drug Screen. Data for tumor model Sarcoma 180 (subcutaneous) in Swiss mice
Conditions: endpoint: mean tumor weight, higher = larger tumour
Outline: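 T/C ratio: treated over vehicle-treated controls, measuring survival or tumor size in transplanted-tumor mice.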

[1] = dose: 15.0 mg/kg/injection, schedule: Q01DX007 (ip), vehicle: carboxymethylcellulose (CMC)
[2] = dose: 30.0 mg/kg/injection, schedule: Q01DX007 (ip), vehicle: carboxymethylcellulose (CMC)
[3] = dose: 12.5 mg/kg/injection, schedule: Q#A X014 (ip), vehicle: carboxymethylcellulose (CMC)

CC(C)C(=O)OCC1OC(n2cnc3c(=S)nc[nH]c32)C(OC(=O)C(C)C)C1OC(=O)C(C)C (stereo unspecified)
T/C (dose: 17.0 mg/kg/injection, schedule: Q01DX007 (ip), vehicle: steriod suspending solution): 80 % of control
T/C (dose: 24.0 mg/kg/injection, schedule: Q01DX007 (ip), vehicle: carboxymethylcellulose (CMC)): 76 % of control
T/C (dose: 25.0 mg/kg/injection, schedule: Q01DX007 (ip), vehicle: steriod suspending solution): 61 % of control
T/C (dose: 37.0 mg/kg/injection, schedule: Q01DX007 (ip), vehicle: carboxymethylcellulose (CMC)): 38 % of control
T/C (dose: 37.0 mg/kg/injection, schedule: Q01DX007 (ip), vehicle: steriod suspending solution): 66 % of control
T/C (dose: 55.0 mg/kg/injection, schedule: Q01DX007 (ip), vehicle: carboxymethylcellulose (CMC)): 31 % of control and 47 % of control
T/C (dose: 55.0 mg/kg/injection, schedule: Q01DX007 (ip), vehicle: steriod suspending solution): 27 % of control and 37 % of control
T/C (dose: 84.0 mg/kg/injection, schedule: Q01DX007 (ip), vehicle: carboxymethylcellulose (CMC)): 25 % of control and 31 % of control
T/C (dose: 84.0 mg/kg/injection, schedule: Q01DX007 (ip), vehicle: steriod suspending solution): 52 % of control
T/C (dose: 125.0 mg/kg/injection, schedule: Q01DX007 (ip), vehicle: carboxymethylcellulose (CMC)): 8 % of control
T/C (dose: 125.0 mg/kg/injection, schedule: Q01DX007 (ip), vehicle: steriod suspending solution): 26 % of control
T/C (dose: 188.0 mg/kg/injection, schedule: Q01DX007 (ip), vehicle: steriod suspending solution): 14 % of control and 17 % of control
T/C (dose: 282.0 mg/kg/injection, schedule: Q01DX007 (ip), vehicle: steriod suspending solution): 16 % of control
T/C (dose: 423.0 mg/kg/injection, schedule: Q01DX007 (ip), vehicle: steriod suspending solution): 16 % of control

Fc1ccc(NC(=S)Nc2cc(Cl)cc(Cl)c2)cc1
T/C [1]: 115 % of control
T/C [2]: 117 % of control

O=C(O)c1cc2ccccc2c(Br)c1O.OC1CCC(Br)C2CCC[N-]C12.[Cu+]
T/C (dose: 0.5 mg/kg/injection, schedule: Q01DX007 (ip), vehicle: carboxymethylcellulose (CMC)): 74 % of control
T/C (dose: 1.0 mg/kg/injection, schedule: Q01DX007 (ip), vehicle: carboxymethylcellulose (CMC)): 90 % of control and 95 % of control
T/C (dose: 2.0 mg/kg/injection, schedule: Q01DX007 (ip), vehicle: carboxymethylcellulose (CMC)): 101 % of control and 109 % of control
T/C (dose: 4.0 mg/kg/injection, schedule: Q01DX007 (ip), vehicle: carboxymethylcellulose (CMC)): 83 % of control

CC(C)([NH-])CO.CC(C)([NH-])CO.[Cl][Cd][Cl]
T/C (dose: 1.0 mg/kg/injection, schedule: Q#A X014 (ip), vehicle: methylcellulose (MC)): 50 % of control
T/C (dose: 1.0 mg/kg/injection, schedule: Q#A X014 (ip), vehicle: other): 91 % of control
T/C (dose: 1.5 mg/kg/injection, schedule: Q#A X014 (ip), vehicle: methylcellulose (MC)): 113 % of control
T/C (dose: 1.5 mg/kg/injection, schedule: Q#A X014 (ip), vehicle: other): 104 % of control
T/C (dose: 1.75 mg/kg/injection, schedule: Q#A X014 (ip), vehicle: methylcellulose (MC)): 70 % of control
T/C (dose: 2.5 mg/kg/injection, schedule: Q#A X014 (ip), vehicle: methylcellulose (MC)): 85 % of control
T/C (dose: 2.5 mg/kg/injection, schedule: Q#A X014 (ip), vehicle: other): 85 % of control
T/C (dose: 2.65 mg/kg/injection, schedule: Q#A X014 (ip), vehicle: methylcellulose (MC)): 73 % of control
T/C (dose: 3.75 mg/kg/injection, schedule: Q#A X014 (ip), vehicle: methylcellulose (MC)): 73 % of control
T/C (dose: 3.75 mg/kg/injection, schedule: Q#A X014 (ip), vehicle: other): 102 % of control
T/C (dose: 4.0 mg/kg/injection, schedule: Q#A X014 (ip), vehicle: methylcellulose (MC)): 49 % of control
T/C (dose: 6.0 mg/kg/injection, schedule: Q#A X014 (ip), vehicle: methylcellulose (MC)): 36 % of control

CC(C)[C@]1(O)CC[C@H]2[C@@H]3CCc4cc(O)ccc4[C@H]3CC[C@@]21C
T/C (dose: 2.5 mg/kg/injection, schedule: Q01DX007 (sc), vehicle: steriod suspending solution): 92 % of control
T/C (dose: 5.0 mg/kg/injection, schedule: Q01DX007 (sc), vehicle: steriod suspending solution): 60 % of control
T/C (dose: 10.0 mg/kg/injection, schedule: Q01DX007 (sc), vehicle: steriod suspending solution): 95 % of control

CCN(CC)CCNc1ccc(C)c2sc3ccccc3c(=O)c12
T/C (dose: 4.87 mg/kg/injection, schedule: Q#A X014 (ip), vehicle: carboxymethylcellulose (CMC)): 120 % of control
T/C (dose: 7.5 mg/kg/injection, schedule: Q01DX007 (ip), vehicle: carboxymethylcellulose (CMC)): 93 % of control
T/C (dose: 9.75 mg/kg/injection, schedule: Q01DX007 (ip), vehicle: carboxymethylcellulose (CMC)): 60 % of control
T/C (dose: 9.75 mg/kg/injection, schedule: Q#A X014 (ip), vehicle: carboxymethylcellulose (CMC)): 77 % of control
T/C [3]: 85 % of control
T/C [1]: 101 % of control
T/C (dose: 19.5 mg/kg/injection, schedule: Q01DX007 (ip), vehicle: carboxymethylcellulose (CMC)): 72 % of control
T/C (dose: 19.5 mg/kg/injection, schedule: Q#A X014 (ip), vehicle: carboxymethylcellulose (CMC)): 75 % of control
T/C (dose: 25.0 mg/kg/injection, schedule: Q#A X014 (ip), vehicle: carboxymethylcellulose (CMC)): 64 % of control
T/C [2]: 106 % of control
T/C (dose: 31.2 mg/kg/injection, schedule: Q01DX007 (ip), vehicle: carboxymethylcellulose (CMC)): 117 % of control
T/C (dose: 39.0 mg/kg/injection, schedule: Q#A X014 (ip), vehicle: carboxymethylcellulose (CMC)): 32 % of control
T/C (dose: 50.0 mg/kg/injection, schedule: Q#A X014 (ip), vehicle: carboxymethylcellulose (CMC)): 35 % of control
T/C (dose: 52.0 mg/kg/injection, schedule: Q01DX007 (ip), vehicle: carboxymethylcellulose (CMC)): 82 % of control
T/C (dose: 60.0 mg/kg/injection, schedule: Q01DX007 (ip), vehicle: carboxymethylcellulose (CMC)): 55 % of control

COc1ccc(C[C@H](N)C(=O)NC2C(CO)OC(n3cnc4c(N(C)C)ncnc43)C2O)cc1 (stereo partly specified)
T/C [3]: 106 % of control
T/C (dose: 13.12 mg/kg/injection, schedule: Q01DX007 (ip), vehicle: carboxymethylcellulose (CMC)): 65 % of control
T/C (dose: 26.25 mg/kg/injection, schedule: Q01DX007 (ip), vehicle: carboxymethylcellulose (CMC)): 105 % of control
T/C (dose: 52.5 mg/kg/injection, schedule: Q01DX007 (ip), vehicle: carboxymethylcellulose (CMC)): 66 % of control
T/C (dose: 105.0 mg/kg/injection, schedule: Q01DX007 (ip), vehicle: carboxymethylcellulose (CMC)): 80 % of control

NCC(=O)NC1(C(=O)O)CCCC1 (H-Gly-[Ac5c]-OH)
T/C (dose: 66.0 mg/kg/injection, schedule: Q01DX007 (ip), vehicle: saline): 57 % of control
T/C (dose: 100.0 mg/kg/injection, schedule: Q01DX007 (ip), vehicle: saline): 103 % of control
T/C (dose: 150.0 mg/kg/injection, schedule: Q01DX007 (ip), vehicle: saline): 45 % of control
T/C (dose: 225.0 mg/kg/injection, schedule: Q01DX007 (ip), vehicle: saline): 47 % of control

C[C@]12CC[C@H]3[C@@H](CC=C4C[C@@H](OC5CCCCO5)CC[C@@]43C)[C@@H]1CC[C@@H]2O (stereo partly specified)
T/C (dose: 25.0 mg/kg/injection, schedule: Q#A X014 (oral), vehicle: steriod suspending solution): 95 % of control
T/C (dose: 75.0 mg/kg/injection, schedule: Q#A X014 (oral), vehicle: steriod suspending solution): 95 % of control
T/C (dose: 187.5 mg/kg/injection, schedule: Q#A X014 (oral), vehicle: steriod suspending solution): 80 % of control

CC1CN1P(=O)(Oc1ccccc1)N1CC1C (stereo unspecified)
T/C (dose: 27.5 mg/kg/injection, schedule: Q#A X014 (ip), vehicle: saline): 60 % of control and 67 % of control and 84 % of control
T/C (dose: 62.5 mg/kg/injection, schedule: Q#A X014 (ip), vehicle: saline): 13 % of control and 20 % of control

CCOC(=O)CCc1ccc(N=NN2CCCC2)cc1
T/C (dose: 225.0 mg/kg/injection, schedule: Q01DX007 (ip), vehicle: carboxymethylcellulose (CMC)): 110 % of control
T/C (dose: 450.0 mg/kg/injection, schedule: Q01DX007 (ip), vehicle: carboxymethylcellulose (CMC)): 95 % of control
